Key:
weeds [1] = test: Pre-emergence test; format: in vivo; details: cf. Tables A-1 to A-5
Experimental: (§1) Pre-emergence Test Solvent: 5 parts by weight of acetone Emulsifier: 1 part by weight of alkylaryl polyglycol ether To produce a suitable preparation of active compound, 1 part by weight of active compound is mixed with the stated amount of solvent, the stated amount of emulsifier is added and the concentrate is diluted with water to the desired concentration. Seeds of the test plants are sown in normal soil. After about 24 hours, the soil is sprayed with the preparation of the active compound in such a way as to apply the particular amounts of active compound desired per unit area The concentration of the spray liquor is chosen so that the particular amounts of active compound desired are applied in 1000 l of water/ha. After three weeks, the degree of damage to the plants is rated in % damage in comparison to the development of the untreated control. The figures denote: [table]

Wheat = test: Post-emergence test/greenhouse; format: in vivo; details: for Wheat, % damage: rated after three weeks vs untreated control; for % damage, Wheat: after three weeks
Experimental: as §1, with “Post-emergence” for “Pre-emergence”, “Test plants which have a height” for “Seeds”, “5-15 cm” for “the test plants”, “are” for “are sown in normal soil. After about 24 hours, the soil is”, “area.” for “area”

Ipomoea = test: Post-emergence test/greenhouse; format: in vivo; details: 60 g ai./ha, rated after three weeks vs untreated control
Experimental: as §1, with “Post-emergence” for “Pre-emergence”, “Test plants which have a height” for “Seeds”, “5-15 cm” for “the test plants”, “are” for “are sown in normal soil. After about 24 hours, the soil is”, “area.” for “area”

Sorghum [2] = test: Post-emergence test/greenhouse; format: in vivo; details: 60 g ai./ha, rated after three weeks vs untreated control
Experimental: as §1, with “Post-emergence” for “Pre-emergence”, “Test plants which have a height” for “Seeds”, “5-15 cm” for “the test plants”, “are” for “are sown in normal soil. After about 24 hours, the soil is”, “area.” for “area”

Solanum [3] = test: Post-emergence test/greenhouse; format: in vivo; details: for Solanum, % damage: rated after three weeks vs untreated control; for % damage, Solanum: after three weeks
Experimental: as §1, with “Post-emergence” for “Pre-emergence”, “Test plants which have a height” for “Seeds”, “5-15 cm” for “the test plants”, “are” for “are sown in normal soil. After about 24 hours, the soil is”, “area.” for “area”

Stellaria = test: Post-emergence test/greenhouse; format: in vivo; details: 60 g ai./ha, rated after three weeks vs untreated control
Experimental: as §1, with “Post-emergence” for “Pre-emergence”, “Test plants which have a height” for “Seeds”, “5-15 cm” for “the test plants”, “are” for “are sown in normal soil. After about 24 hours, the soil is”, “area.” for “area”

Xanthium = test: Post-emergence test/greenhouse; format: in vivo; details: for Xanthium, % damage: rated after three weeks vs untreated control; for % damage, Xanthium: after three weeks
Experimental: as §1, with “Post-emergence” for “Pre-emergence”, “Test plants which have a height” for “Seeds”, “5-15 cm” for “the test plants”, “are” for “are sown in normal soil. After about 24 hours, the soil is”, “area.” for “area”

weeds [4] = test: Post-emergence test; format: in vivo; details: cf. Tables B-1 to B-4
Experimental: as §1, with “Post-emergence” for “Pre-emergence”, “Test plants which have a height” for “Seeds”, “5-15 cm” for “the test plants”, “are” for “are sown in normal soil. After about 24 hours, the soil is”, “area.” for “area”

Alopecurus = test: Pre-emergence test/greenhouse; format: in vivo; details: 125 g ai./ha, after three weeks
Experimental: as §1

Sorghum [5] = test: Pre-emergence test/greenhouse; format: in vivo; details: 125 g ai./ha, after three weeks
Experimental: as §1

Matricaria [6] = test: Pre-emergence test/greenhouse; format: in vivo; details: 125 g ai./ha, after three weeks
Experimental: as §1

Soya beans = test: Pre-emergence test/greenhouse; format: in vivo; details: 125 g ai./ha, after three weeks
Experimental: as §1

Lolium = test: Pre-emergence test/greenhouse; format: in vivo; details: 125 g ai./ha, after three weeks
Experimental: as §1

Solanum [7] = test: Pre-emergence test/greenhouse; format: in vivo; details: 125 g ai./ha, after three weeks
Experimental: as §1

Chenopodium = test: Pre-emergence test/greenhouse; format: in vivo; details: 125 g ai./ha, after three weeks
Experimental: as §1

Amaranthus [8] = test: Pre-emergence test/greenhouse; format: in vivo; details: 125 g ai./ha, after three weeks
Experimental: as §1

Maize = test: Pre-emergence test/greenhouse; format: in vivo; details: 125 g ai./ha, after three weeks
Experimental: as §1

Amaranthus [9] = test: Post-emergence test/greenhouse; format: in vivo; details: for % damage, Amaranthus: post-emergence, after three weeks
Experimental: as §1, with “Post-emergence” for “Pre-emergence”, “Test plants which have a height” for “Seeds”, “5-15 cm” for “the test plants”, “are” for “are sown in normal soil. After about 24 hours, the soil is”, “area.” for “area”

Matricaria [10] = test: Post-emergence test/greenhouse; format: in vivo; details: after three weeks
Experimental: as §1, with “Post-emergence” for “Pre-emergence”, “Test plants which have a height” for “Seeds”, “5-15 cm” for “the test plants”, “are” for “are sown in normal soil. After about 24 hours, the soil is”, “area.” for “area”

[11] = log P n-octanol/water by the HPLC method; format: physicochemical; details: at pH 2, eluent acetonitrile containing 1% of H3PO4
[12] = Table B-4, post-emergence, 60 g ai./ha

CCSc1cccc(OC(F)(F)F)c1S(=O)(=O)NC(=O)n1nc(OC)n(C)c1=O [Example 40]
activity against weeds (weeds [1]): very strong activity
Wheat, % damage (Wheat; 60 g ai./ha): 20%
Ipomoea, % damage (Ipomoea): 90%
Sorghum, % damage (Sorghum [2]; post-emergence): 80%
Solanum, % damage (Solanum [3]; post-emergence, 60 g ai./ha): 95%
Stellaria, % damage (Stellaria): 95%
Xanthium, % damage (Xanthium; post-emergence, 60 g ai./ha): 100%
activity against weeds (weeds [4]): very strong activity
% damage, Alopecurus (Alopecurus): 100%
% damage, Sorghum (Sorghum [5]): 100%
% damage, Matricaria (Matricaria [6]): 100%
% damage, Soya beans (Soya beans): 20%
% damage, Lolium (Lolium): 95%
% damage, Solanum (Solanum [7]): 100%
% damage, Chenopodium (Chenopodium): 100%
% damage, Amaranthus (Amaranthus [8]): 100%
% damage, Maize (Maize): 5%

CCSc1cccc(OC(F)(F)F)c1S(=O)(=O)NC(=O)n1nc(SC)n(C)c1=O [Example 41]
activity against weeds (weeds [1]): very strong activity
% damage, Alopecurus (Alopecurus): 100%
% damage, Sorghum (Sorghum [5]): 90%
% damage, Matricaria (Matricaria [6]): 100%
% damage, Soya beans (Soya beans): 20%
% damage, Lolium (Lolium): 80%
% damage, Solanum (Solanum [7]): 100%
% damage, Chenopodium (Chenopodium): 100%
% damage, Amaranthus (Amaranthus [8]): 100%
% damage, Maize (Maize): 10%

CCc1nn(C(=O)NS(=O)(=O)c2c(C)cccc2SC)c(=O)n1C [Example 49]
Wheat, % damage (Wheat; 60 g ai./ha): 20%
Ipomoea, % damage (Ipomoea): 90%
Sorghum, % damage (Sorghum [2]; Table B-4, post-emergence): 90%
Sorghum, % damage (Sorghum [2]; post-emergence): 90%
Solanum, % damage (Solanum [3]; [12]): 90%
Solanum, % damage (Solanum [3]; post-emergence, 60 g ai./ha): 90%
Amaranthus, % damage (Amaranthus [9]; Table B-4, post-emergence, 60 g ai./ha, rated after three weeks vs untreated control): 95%
Stellaria, % damage (Stellaria): 70%
Xanthium, % damage (Xanthium; [12]): 95%
Xanthium, % damage (Xanthium; post-emergence, 60 g ai./ha): 95%
activity against weeds (weeds [4]): very strong activity

CSc1cccc(SC)c1S(=O)(=O)NC(=O)n1nc(SC)n(C)c1=O [Example 51]
% damage, Wheat (Wheat; 125 g ai./ha): 20%
% damage, Matricaria (Matricaria [10]; 125 g ai./ha): 95%
% damage, Solanum (Solanum [3]; post-emergence, 125 g ai./ha): 95%
% damage, Amaranthus (Amaranthus [9]; 125 g ai./ha): 95%
% damage, Xanthium (Xanthium; post-emergence, 125 g ai./ha): 95%
activity against weeds (weeds [4]): very strong activity

CCSc1cccc(C)c1S(=O)(=O)NC(=O)n1nc(CC)n(C)c1=O [Example 55]
% damage, Wheat (Wheat; 60 g ai./ha): 20%
% damage, Matricaria (Matricaria [10]; 60 g ai./ha): 95%
% damage, Solanum (Solanum [3]; post-emergence, 60 g ai./ha): 90%
% damage, Amaranthus (Amaranthus [9]; 60 g ai./ha): 95%
% damage, Xanthium (Xanthium; post-emergence, 60 g ai./ha): 100%
activity against weeds (weeds [4]): very strong activity

COc1nn(C(=O)NS(=O)(=O)c2c(SCC(F)F)cccc2C(F)(F)F)c(=O)n1C [Example 99]
log P [11]: (log P = 2.59)

COc1nn(C(=O)NS(=O)(=O)c2c(SCC(F)F)cccc2C(F)(F)F)c(=O)n1C1CC1 [Example 100]
log P [11]: (log P = 2.96)

CSc1nn(C(=O)NS(=O)(=O)c2c(C)cccc2SCC(F)F)c(=O)n1C [Example 101]
log P [11]: (log P = 2.73)

From patent US6677277B1, “Substituted sulphonyl amino(thio)carbonyl compounds and their use as herbicides” (Bayer Aktiengesellschaft, priority 1996, dated 2004)
